Measurements taken from ChEMBL document CHEMBL1135858, “Vitamin D(3): synthesis of seco-C-9,11-bisnor-17-methyl-1 alpha,25-dihydroxyvitamin D(3) analogues” (2002).

Assays:
[1] = target: T1, Vitamin D3 receptor (Sus scrofa) (UniProt A3RGC1); assay: (§1) Displacement of 50% binding of [3H]alpha,25 (OH)2D3 from pig intestinal mucosa Vitamin D3 receptor
T1 sequence (whole entry): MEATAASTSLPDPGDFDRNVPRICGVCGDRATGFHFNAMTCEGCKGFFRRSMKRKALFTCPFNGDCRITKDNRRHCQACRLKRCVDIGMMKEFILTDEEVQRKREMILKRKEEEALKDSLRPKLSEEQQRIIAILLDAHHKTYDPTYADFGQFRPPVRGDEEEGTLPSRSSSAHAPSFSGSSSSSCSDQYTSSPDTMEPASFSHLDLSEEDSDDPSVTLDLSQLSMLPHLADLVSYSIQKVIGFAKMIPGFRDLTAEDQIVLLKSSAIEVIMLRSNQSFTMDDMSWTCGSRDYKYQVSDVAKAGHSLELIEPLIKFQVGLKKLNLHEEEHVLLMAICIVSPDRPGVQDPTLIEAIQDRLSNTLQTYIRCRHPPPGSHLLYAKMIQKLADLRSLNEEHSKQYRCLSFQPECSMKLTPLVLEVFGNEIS

HL-60 = assay: Percent inhibition against HL-60 cell line (50% dose response), relative to 1-alpha,25 (OH)2D3 (100% activity) determined in vitro; format: functional, Homo sapiens; set-up: scale not given: the % may be the effect or the level left
Keratinocyte = assay: Percent inhibition against Keratinocytes cell line (50% dose response), relative to 1-alpha,25 (OH)2D3 (100% activity) determined in vitro; format: functional, Homo sapiens; set-up: scale not given: the % may be the effect or the level left
MCF7 = assay: Percent inhibition against MCF-7 cell line (50% dose response), relative to 1-alpha,25 (OH)2D3 (100% activity) determined in vitro; format: functional, Homo sapiens; set-up: scale not given: the % may be the effect or the level left
Mus musculus = assay: Calcemic effect in vivo in vitamin D-replete normal NMRI mice by daily intraperitoneal injections of compound and 1-alpha,25 (OH)2D3 for 7 consecutive days; format: functional
[2] = target: T1, Vitamin D3 receptor (Sus scrofa); assay: as §1; format: tissue-based

| Structure (SMILES) | Relative affinity [1] | Activity (HL-60) [%] | Activity (Keratinocyte) [%] | Activity (MCF7) [%] | Activity (Mus musculus) [%] | Relative affinity [2] |
| --- | --- | --- | --- | --- | --- | --- |
| C=C1C(=CC=C[C@@H]2CC[C@](C)([C@H](C)CC(C)CCCC(O)(C(F)(F)F)C(F)(F)F)C2(C)C)C[C@@H](O)C[C@@H]1O (stereo not given in full) | 30 | 150 | 2400 | 2500 | 10 | – |
| C=C1C(=CC=C[C@@H]2CC[C@](C)([C@@H](C)CC(C)CCCC(O)(CC)CC)C2(C)C)C[C@@H](O)C[C@@H]1O (stereo not given in full) | – | 1250 | 7000 | 15000 | 100 | 85 |
| CCC(O)(C#CCC(C)C[C@@H](C)[C@@]1(C)CC[C@@H](/C=C/C=C2C[C@@H](O)C[C@H](O)C2)C1(C)C)CC (stereo not given in full) | 50 | 50 | 85 | 85 | 0.25 | – |
| CCC(O)(C#CCC(C)C[C@H](C)[C@@]1(C)CC[C@@H](/C=C/C=C2C[C@@H](O)C[C@H](O)C2)C1(C)C)CC (stereo not given in full) | – | 400 | 300 | 700 | 2 | 60 |
| C=C1C(=CC=C[C@@H]2CC[C@](C)([C@H](C)CC(C)CC#CC(O)(CC)CC)C2(C)C)C[C@@H](O)C[C@@H]1O (stereo not given in full) | 80 | 75 | 80 | 150 | 2 | – |
| C=C1/C(=C\C=C2/CCC[C@]3(C)[C@@H]([C@H](C)CCCC(C)(C)O)CC[C@@H]23)C[C@@H](O)C[C@@H]1O [CALCITRIOL] | – | 100 | 100 | 100 | 100 | 100 |
| C=C1C(=CC=C[C@@H]2CC[C@](C)([C@H](C)CC(C)CCCC(O)(CC)CC)C2(C)C)C[C@@H](O)C[C@@H]1O (stereo not given in full) | 50 | 150 | 400 | 300 | 2 | – |
| C=C1C(=CC=C[C@@H]2CC[C@](C)([C@@H](C)CC(C)CCCC(O)(C(F)(F)F)C(F)(F)F)C2(C)C)C[C@@H](O)C[C@@H]1O (stereo not given in full) | – | 400 | 20000 | 30000 | >100 | 60 |
| CC(CC#CC(O)(C(F)(F)F)C(F)(F)F)C[C@@H](C)[C@@]1(C)CC[C@@H](/C=C/C=C2C[C@@H](O)C[C@H](O)C2)C1(C)C (stereo not given in full) | 50 | 300 | 3000 | 1500 | 3 | – |
| C=C1C(=CC=C[C@@H]2CC[C@](C)([C@@H](C)CC(C)CC#CC(O)(CC)CC)C2(C)C)C[C@@H](O)C[C@@H]1O (stereo not given in full) | – | 600 | 800 | 750 | 25 | 80 |
| CC(CCCC(C)(C)O)C[C@@H](C)[C@@]1(C)CC[C@@H](/C=C/C=C2C[C@@H](O)C[C@H](O)C2)C1(C)C (stereo not given in full) | 3 | 10 | 80 | 8 | 0.12 | – |
| C=C1C(=CC=C[C@@H]2CC[C@](C)([C@@H](C)CC(C)CC#CC(O)(C(F)(F)F)C(F)(F)F)C2(C)C)C[C@@H](O)C[C@@H]1O (stereo not given in full) | – | 1250 | 15000 | 8000 | 25 | 75 |
| CC(CC#CC(O)(C(F)(F)F)C(F)(F)F)C[C@H](C)[C@@]1(C)CC[C@@H](/C=C/C=C2C[C@@H](O)C[C@H](O)C2)C1(C)C (stereo not given in full) | – | 400 | 15000 | 6000 | 25 | 50 |
| C=C1C(=CC=C[C@@H]2CC[C@](C)([C@H](C)CC(C)CC#CC(C)(C)O)C2(C)C)C[C@@H](O)C[C@@H]1O (stereo not given in full) | 60 | 80 | 500 | 600 | 3 | – |
| CC(CC#CC(C)(C)O)C[C@H](C)[C@@]1(C)CC[C@@H](/C=C/C=C2C[C@@H](O)C[C@H](O)C2)C1(C)C (stereo not given in full) | – | 350 | 2000 | 1300 | 4 | 40 |
| C=C1C(=CC=C[C@@H]2CC[C@](C)([C@H](C)CC(C)CC#CC(O)(C(F)(F)F)C(F)(F)F)C2(C)C)C[C@@H](O)C[C@@H]1O (stereo not given in full) | 60 | 250 | 3600 | 4500 | 6 | – |
| C=C1C(=CC=C[C@@H]2CC[C@](C)([C@H](C)CC(C)CCCC(C)(C)O)C2(C)C)C[C@@H](O)C[C@@H]1O (stereo not given in full) | 6 | 50 | 100 | 60 | 0.25 | – |
| CC(CC#CC(C)(C)O)C[C@@H](C)[C@@]1(C)CC[C@@H](/C=C/C=C2C[C@@H](O)C[C@H](O)C2)C1(C)C (stereo not given in full) | 7 | 85 | 200 | 70 | 0.12 | – |
| CC(CCCC(O)(C(F)(F)F)C(F)(F)F)C[C@@H](C)[C@@]1(C)CC[C@@H](/C=C/C=C2C[C@@H](O)C[C@H](O)C2)C1(C)C (stereo not given in full) | 9 | 100 | 1500 | 600 | 50 | – |
| CC(CCCC(C)(C)O)C[C@H](C)[C@@]1(C)CC[C@@H](/C=C/C=C2C[C@@H](O)C[C@H](O)C2)C1(C)C (stereo not given in full) | – | 600 | 600 | 400 | 0.5 | 40 |
| C=C1C(=CC=C[C@@H]2CC[C@](C)([C@@H](C)CC(C)CCCC(C)(C)O)C2(C)C)C[C@@H](O)C[C@@H]1O (stereo not given in full) | 85 | 800 | 1000 | 2000 | 8 | – |
| CC(CCCC(O)(C(F)(F)F)C(F)(F)F)C[C@H](C)[C@@]1(C)CC[C@@H](/C=C/C=C2C[C@@H](O)C[C@H](O)C2)C1(C)C (stereo not given in full) | – | 400 | 16000 | 20000 | 100 | 40 |
| CCC(O)(CC)CCCC(C)C[C@@H](C)[C@@]1(C)CC[C@@H](/C=C/C=C2C[C@@H](O)C[C@H](O)C2)C1(C)C (stereo not given in full) | 10 | 80 | 300 | 150 | 0.5 | – |
| CCC(O)(CC)CCCC(C)C[C@H](C)[C@@]1(C)CC[C@@H](/C=C/C=C2C[C@@H](O)C[C@H](O)C2)C1(C)C (stereo not given in full) | – | 500 | 7000 | 7500 | 20 | 60 |
| C=C1C(=CC=C[C@@H]2CC[C@](C)([C@@H](C)CC(C)CC#CC(C)(C)O)C2(C)C)C[C@@H](O)C[C@@H]1O (stereo not given in full) | – | 800 | 3250 | 1250 | 3 | 75 |
